{
  "source": "paper PMC2858705",
  "about": "(PLoS Pathogens, 2010)",
  "key": {"SARS-CoV nsp14 N7-MTase": {"biological_target": "SARS-CoV nsp14 N7-MTase (Severe acute respiratory syndrome coronavirus, UniProt P0C6X7)", "assay": "biochemical", "assay_type": "biochemical"}, "SARS-CoV": {"test_system": "SARS-CoV", "settings": "infected cells; cited from earlier work"}, "[1]": {"biological_target": "SARS-CoV nsp10/nsp16 2'O-MTase (Severe acute respiratory syndrome coronavirus, UniProt P0C6X7)", "assay": "biochemical", "assay_type": "biochemical"}, "VV:2'O-MTase": {"biological_target": "VV:2'O-MTase", "settings": "cited from earlier work"}, "VV:N7-MTase": {"biological_target": "VV:N7-MTase", "settings": "cited from earlier work"}, "DV:NS5MTase": {"biological_target": "DV:NS5MTase", "settings": "read-out: IC50 2'O-MTase activity of DV:NS5MTase; cited from earlier work"}},
  "note": "Values joined by “and” are separate entries in the source; they are usually repeats but may differ in a detail not shown here. Equal values may be shown once. Read-outs that look alike come from different tables or passages of the source.",
  "data": [
    {"molecule": "O=C(O)C1=CC(=C(c2ccc(O)c(C(=O)O)c2)c2ccc(O)c(C(=O)O)c2)C=CC1=O", "note": "[ATA, aurintricarboxylic acid]", "values": [
      {"measurement": "IC50 N7-MTase activity of nsp14", "setting": "SARS-CoV nsp14 N7-MTase", "value": "micromolar range"},
      {"measurement": "inhibition of nsp14 N7-MTase at 100 µM (in words)", "setting": "SARS-CoV nsp14 N7-MTase", "value": "efficiently inhibited"},
      {"measurement": "IC50", "setting": "SARS-CoV nsp14 N7-MTase; IC50 N7-MTase activity of nsp14", "value": "6400 nM and 2100 nM"},
      {"measurement": "inhibition of SARS-CoV replication", "setting": "SARS-CoV", "value": "inhibit SARS-CoV replication"},
      {"measurement": "IC50 2'O-MTase activity of nsp10/nsp16", "setting": "[1]", "value": "micromolar range"},
      {"measurement": "inhibition of nsp16/nsp10 2'O-MTase at 100 µM (in words)", "setting": "[1]", "value": "efficiently inhibited"},
      {"measurement": "IC50", "setting": "[1]; IC50 2'O-MTase activity of nsp10/nsp16", "value": "2100 nM and 6400 nM"}
    ]},
    {"molecule": "Nc1ncnc2c1ncn2[C@@H]1O[C@H](CSCC[C@H](N)C(=O)O)[C@@H](O)[C@H]1O", "note": "[AdoHcy, S-adenosyl-l-homocysteine]", "values": [
      {"measurement": "Ki", "setting": "VV:2'O-MTase", "value": 500, "unit": "nM"},
      {"measurement": "Ki", "setting": "VV:N7-MTase", "value": 1000, "unit": "nM"},
      {"measurement": "inhibition of nsp14 N7-MTase at 100 µM (in words)", "setting": "SARS-CoV nsp14 N7-MTase", "value": "efficiently inhibited"},
      {"measurement": "IC50", "setting": "SARS-CoV nsp14 N7-MTase; read-out: IC50 N7-MTase activity of nsp14", "value": 16000, "unit": "nM"},
      {"measurement": "inhibition of nsp16/nsp10 2'O-MTase at 100 µM (in words)", "setting": "[1]", "value": "efficiently inhibited"},
      {"measurement": "IC50", "setting": "[1]; read-out: IC50 2'O-MTase activity of nsp10/nsp16", "value": 12000, "unit": "nM"}
    ]},
    {"molecule": "Nc1nc2c(ncn2[C@@H]2O[C@H](COP(=O)(O)OP(=O)(O)OP(=O)(O)OC[C@H]3O[C@@H](n4cnc5c(N)ncnc54)[C@H](O)[C@@H]3O)[C@@H](O)[C@H]2O)c(=O)[nH]1", "note": "[GpppA]", "values": [
      {"measurement": "inhibition of nsp14 N7-MTase at 100 µM", "setting": "SARS-CoV nsp14 N7-MTase", "value": 50, "unit": "%"},
      {"measurement": "inhibition of nsp16/nsp10 2'O-MTase at 100 µM", "setting": "[1]", "value": 50, "unit": "%"}
    ]},
    {"molecule": "Cn1c[n+]([C@@H]2O[C@H](COP(=O)(O)OP(=O)(O)OP(=O)(O)OC[C@H]3O[C@@H](n4cnc5c(N)ncnc54)[C@H](O)[C@@H]3O)[C@@H](O)[C@H]2O)c2nc(N)[nH]c(=O)c21", "note": "[^7MeGpppA]", "values": [
      {"measurement": "inhibition of nsp14 N7-MTase at 100 µM", "setting": "SARS-CoV nsp14 N7-MTase", "value": 50, "unit": "%"},
      {"measurement": "inhibition of nsp16/nsp10 2'O-MTase at 100 µM", "setting": "[1]", "value": 50, "unit": "%"}
    ]},
    {"molecule": "Nc1ncnc2c1ncn2[C@@H]1O[C@H](C[C@@H](N)CC[C@H](N)C(=O)O)[C@@H](O)[C@H]1O", "note": "[sinefungin, adenosyl-ornithine]", "values": [
      {"measurement": "IC50", "setting": "VV:2'O-MTase", "value": 39.5, "unit": "nM"},
      {"measurement": "IC50", "setting": "DV:NS5MTase", "value": "420 nM and 630 nM"},
      {"measurement": "IC50", "setting": "VV:N7-MTase", "value": 12, "unit": "nM"}
    ]}
  ]
}
